Test results as given in patent US20230220047A1, “PEPTIDES FOR TREATMENT OF SEPSIS AND CANCER” (NORWEGIAN UNIVERSITY OF SCIENCE AND TECHNOLOGY (NTNU), priority 2020, published 2023).
“Also recorded” adds a separate entry of the source.

Columns and labels:
Type in all cases: cell-based
[1] = target: T1, Mal interaction with MyD88 and IRAK1 (Homo sapiens, UniProt P58753); experiment: Anti-Mal immunoprecipitation from LPS-stimulated primary human macrophages; details: 15 μM, 30 min pre-treatment, LPS 30 min or 1 h
T1 construct: endogenous in cells; host or cells: primary human macrophages, LPS-stimulated
T1 sequence (P58753 whole entry): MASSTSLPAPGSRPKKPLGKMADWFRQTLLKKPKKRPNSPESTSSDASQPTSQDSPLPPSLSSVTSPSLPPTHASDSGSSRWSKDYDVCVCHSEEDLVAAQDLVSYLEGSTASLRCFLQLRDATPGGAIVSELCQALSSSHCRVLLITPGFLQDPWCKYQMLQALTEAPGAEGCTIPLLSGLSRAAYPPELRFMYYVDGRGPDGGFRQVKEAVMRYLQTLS
Description: (A) Mal^Flag was overexpressed in HEK293T cells. […] Lysis buffer contained 300 mM NaCl and 1% Triton X100. (B) Mal^Flag and SLAMF1 wt or deletion mutants (Δ20 or Δ67 C-terminal amino acids) were co-expressed in HEK293T cells followed by immunoprecipitations with anti-Flag beads and Western blot analysis. (C) Primary human macrophages were pre-treated with 15 μM peptides for 30 min, stimulated with LPS for another 30 min or 1 h, lysed and used for IPs. Precipitations were performed using goat anti-Mal polyclonal antibodies covalently bound to magnetic beads, followed by Western blot analysis. Proteins in lysates were analysed for input control (A-C).

TLR4 = experiment: Cytokine expression in primary human monocytes stimulated by LPS or E. coli particles
Description: Use of human monocytes from blood donors was approved by the Regional Committees for Medical and Health Research Ethics at the Norwegian University of Science and Technology (NTNU). Human monocytes were isolated from buffy coats by adherence as previously described (Husebye et al., Immunity 33: 583-596, 2010). Briefly, freshly prepared buffy coat (The Blood Bank, St. Olav's Hospital, Trondheim, Norway) was diluted in 100 ml PBS, and PBMCs isolated by density gradient centrifugation using Lymphoprep (Axis-Shield) according to the manufacturer's instructions. […] Cells were counted using a Z2 Coulter Particle Count and Size Analyzer (Beckman Coulter) on program B, re-suspended in RPM11640 (Sigma) supplemented with 5% pooled human serum at a concentration of 8×10^6 per ml and seeded into 6-well (1 ml per well) or 24-well (0.5 ml per well) cell culture dishes. […] Total RNA was isolated from the cells using Qiazol reagent #79306 from QIAGEN, and chloroform extraction followed by purification on RNeasy Mini columns with DNAse digestion (Qiagen). cDNA was prepared using the Maxima First Strand cDNA Synthesis Kit for quantitative real-time polymerase chain reaction (RT-qPCR) (Thermo Fisher Scientific) according to the manufacturer's protocol. qPCR was performed using the PerfeCTa qPCR FastMix (Quanta Biosciences) in replicates and cycled in a StepOnePlusTM Real-Time PCR cycler. […]

TLR8 = experiment: qPCR of CL075-induced TLR8-mediated cytokine expression in primary human monocytes; details: 15 μM, CL075 1 μg/ml
Description: Cells were pre-treated with 15 μM peptides for 30 min, followed by addition of LPS (100 ng/ml) (A) or CL075 (1 μg/ml) (B) for 2 or 4 h. Each dot on the graphs corresponds to the average value for one donor, the lines show the mean values for all donors, and error bars indicate the SD.
Total RNA was isolated from the cells using Qiazol reagent #79306 from QIAGEN, and chloroform extraction followed by purification on RNeasy Mini columns with DNAse digestion (Qiagen). cDNA was prepared using the Maxima First Strand cDNA Synthesis Kit for quantitative real-time polymerase chain reaction (RT-qPCR) (Thermo Fisher Scientific) according to the manufacturer's protocol. qPCR was performed using the PerfeCTa qPCR FastMix (Quanta Biosciences) in replicates and cycled in a StepOnePlus™ Real-Time PCR cycler. The following TaqMan® Gene Expression Assays (Applied Biosystems®) were used: IFNβ (Hs01077958_s1), TNF (Hs00174128_m1), TBP (Hs00427620_m1), CXCL10 (Hs01124251_g1), IL-6 (Hs00174131_m1) and IL-1β (Hs01555410_m1), for human cells; Ifnβ (Mm00439552_s1), Tnf (Mm00443258_m1), Tbp (Mm01277042_m1) and II-1β (Mm00434228_m1), for mouse cells. […] Relative expression was calculated using Pfaffl's mathematical model (Pfaffl, Nucleic Acids Research 29(9): e45, 2001). […] Statistical significance was evaluated in GraphPad Prizm 5.03. […] The difference between the two groups was determined by two-tailed t test. […]

Substance: Ac-ITVYASVTLTGRQIKIWFQNRRMKWKK-NH2 [Peptide P7-Pen]
- Mal recruitment to the MyD88 complex and IRAK1 [1]: totally abrogated; also recorded: disruption
- IFNβ, TNF, IL-1β and IL-6 expression in response to TLR4 stimulation (TLR4; 15 μM, 30 min pre-treatment, LPS 100 ng/ml, all tested donors): significantly decreased
- reducing cytokine secretion by monocytes stimulated by E. coli particles (TLR4; P7-Pen 15 μM vs P7-Arg11 10 μM): more effective than P7-Arg11
- CL075-induced TLR8-mediated IFNβ mRNA expression (TLR8): inhibited
- expression of proinflammatory cytokines (TLR8): no significant effect
